# Reference: US9309236B2, “PI-kinase inhibitors with broad spectrum anti-infective activity” (The Board of Trustees of the Leland Stanford Junior …, priority 2011, dated 2016)
# What was measured:
# Plasmodium falciparum = Plasmodium falciparum assay, erythrocyte-fed culture of ring forms; assay type: cell-based; settings: read-out: EC50 P. falcip.
# Procedure: Plasmodium falciparum assays are performed using an erythrocyte-fed culture of P. falciparum ring forms, using similar methods to those described by Deu et al. “Functional Studies of Plasmodium falciparum Dipeptidyl Aminopeptidase I Using Small Molecule Inhibitors and Active Site Probes.” Chemistry & Biology 17, 808-819.
# PI3K C2b = PI3K C2b (Homo sapiens, UniProt O00750); assay: PI3-kinase C2β (type II PI3-kinase beta) kinase assay; assay type: biochemical
# Sequence of PI3K C2b (O00750 whole entry): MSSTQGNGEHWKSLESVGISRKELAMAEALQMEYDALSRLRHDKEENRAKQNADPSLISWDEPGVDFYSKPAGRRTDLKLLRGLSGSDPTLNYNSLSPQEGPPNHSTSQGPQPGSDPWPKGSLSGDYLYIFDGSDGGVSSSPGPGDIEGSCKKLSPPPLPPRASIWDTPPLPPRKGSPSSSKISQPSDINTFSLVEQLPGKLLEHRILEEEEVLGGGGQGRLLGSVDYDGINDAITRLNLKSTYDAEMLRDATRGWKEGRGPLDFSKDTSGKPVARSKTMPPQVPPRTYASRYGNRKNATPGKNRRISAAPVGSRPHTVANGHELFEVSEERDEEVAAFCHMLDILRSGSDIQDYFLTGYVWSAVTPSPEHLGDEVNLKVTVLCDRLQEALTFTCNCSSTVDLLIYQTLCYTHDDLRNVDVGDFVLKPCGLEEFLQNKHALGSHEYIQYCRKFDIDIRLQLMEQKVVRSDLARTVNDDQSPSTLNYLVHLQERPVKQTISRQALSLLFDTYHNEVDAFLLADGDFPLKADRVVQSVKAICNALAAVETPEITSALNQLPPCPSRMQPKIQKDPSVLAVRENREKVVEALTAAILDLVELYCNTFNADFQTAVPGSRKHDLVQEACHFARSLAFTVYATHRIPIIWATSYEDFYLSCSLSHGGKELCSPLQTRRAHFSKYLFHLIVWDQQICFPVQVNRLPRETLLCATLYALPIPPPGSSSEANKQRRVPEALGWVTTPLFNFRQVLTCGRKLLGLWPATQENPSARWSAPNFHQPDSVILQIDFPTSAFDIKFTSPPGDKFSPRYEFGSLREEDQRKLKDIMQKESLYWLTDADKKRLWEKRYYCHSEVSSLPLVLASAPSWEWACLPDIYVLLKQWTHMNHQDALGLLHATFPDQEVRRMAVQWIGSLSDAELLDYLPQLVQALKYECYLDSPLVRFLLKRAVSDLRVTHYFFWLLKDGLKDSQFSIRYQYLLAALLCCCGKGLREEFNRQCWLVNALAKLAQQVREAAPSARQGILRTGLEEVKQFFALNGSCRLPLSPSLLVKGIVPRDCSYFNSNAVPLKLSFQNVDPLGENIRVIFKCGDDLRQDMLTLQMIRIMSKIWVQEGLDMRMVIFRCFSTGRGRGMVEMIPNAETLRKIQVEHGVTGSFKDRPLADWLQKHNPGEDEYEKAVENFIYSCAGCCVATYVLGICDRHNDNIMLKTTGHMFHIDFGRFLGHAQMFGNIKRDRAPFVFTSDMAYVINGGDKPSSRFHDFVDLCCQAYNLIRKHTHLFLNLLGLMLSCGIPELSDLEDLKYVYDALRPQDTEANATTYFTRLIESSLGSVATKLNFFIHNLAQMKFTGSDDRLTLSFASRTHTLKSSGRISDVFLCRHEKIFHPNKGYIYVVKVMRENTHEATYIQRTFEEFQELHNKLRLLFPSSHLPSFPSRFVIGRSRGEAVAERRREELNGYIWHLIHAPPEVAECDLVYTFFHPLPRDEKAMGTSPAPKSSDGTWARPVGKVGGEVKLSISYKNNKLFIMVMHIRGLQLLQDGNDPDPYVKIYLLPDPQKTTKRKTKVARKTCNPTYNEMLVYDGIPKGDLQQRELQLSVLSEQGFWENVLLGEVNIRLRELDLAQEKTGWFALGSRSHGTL
# Procedure: Compounds are tested in C.1.1. PI kinase assays as described by Shokat et al., “A membrane capture assay for lipid kinase activity.” Nat. Protoc. 2007; 2(10):2459-66.
# [1] = system: PI(4)P and PI(4,5)P2 in Huh7.5 cells; assay: Immunofluorescence of intracellular PI(4)P and PI(4,5)P2 pools in Huh7.5 cells; assay type: cell-based
# Procedure: (§1) FIG. 1 illustrates that the exemplary compound PT423 decreases PI(4)P (top panels) and PI(4,5)P2 (bottom panels) in a dose-dependent manner. Left panels: uninfected Huh7.5 cells; right panels: HCV-infected Huh7.5 cells. Cells were treated with the indicated concentrations of PT423 or vehicle control, and analyzed by immunofluorescence with antibodies to PI(4)P or PI(4,5)P2 (green) along with an antibody to calnexin (red) to control for ER morphology.
# To further confirm its mechanism of action the effect of PT423 on PI-4 levels was determined in cells using immunofluorescence to monitor the intracellular localized pools of PI-4. The effect of PT423 on intracellular pools of PIP2 was tested, which were predicted to be similarly sensitive to inhibition using PT423.
# as §1, with “that” for “that the exemplary compound”
# [2] = biological target: HA-tagged bovine PI4KIIIβ (Bos taurus, UniProt O02810); assay: PI4KIIIβ immunoprecipitate kinase assay with [γ-32P]-ATP; assay type: biochemical; settings: in vitro enzyme assays; read-out: IC50 PI4KIIIβ
# Sequence of HA-tagged bovine PI4KIIIβ (O02810 whole entry): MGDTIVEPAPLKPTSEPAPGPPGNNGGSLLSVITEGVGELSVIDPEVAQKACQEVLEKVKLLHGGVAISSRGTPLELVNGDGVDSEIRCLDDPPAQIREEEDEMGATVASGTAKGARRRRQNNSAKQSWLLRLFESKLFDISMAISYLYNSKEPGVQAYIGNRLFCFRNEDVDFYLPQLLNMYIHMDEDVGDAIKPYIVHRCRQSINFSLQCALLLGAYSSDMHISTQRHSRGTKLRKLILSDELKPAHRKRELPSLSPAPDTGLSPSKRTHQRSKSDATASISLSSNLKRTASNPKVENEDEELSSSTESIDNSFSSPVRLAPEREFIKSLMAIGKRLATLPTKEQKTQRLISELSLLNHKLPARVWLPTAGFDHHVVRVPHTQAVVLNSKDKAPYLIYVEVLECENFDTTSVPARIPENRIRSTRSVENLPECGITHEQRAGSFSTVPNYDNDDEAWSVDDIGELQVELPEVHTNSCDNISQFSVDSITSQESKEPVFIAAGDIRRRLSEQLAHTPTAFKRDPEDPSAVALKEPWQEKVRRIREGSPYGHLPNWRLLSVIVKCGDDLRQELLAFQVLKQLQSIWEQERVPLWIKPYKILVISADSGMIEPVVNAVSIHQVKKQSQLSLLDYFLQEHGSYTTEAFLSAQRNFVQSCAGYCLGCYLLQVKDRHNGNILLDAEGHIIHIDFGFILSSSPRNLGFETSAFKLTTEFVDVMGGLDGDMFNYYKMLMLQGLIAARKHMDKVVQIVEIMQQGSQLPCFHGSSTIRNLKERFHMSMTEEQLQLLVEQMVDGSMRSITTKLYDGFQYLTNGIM
# Procedure: In the assays described here, p110α-p85 complex and p110γ were acquired from Millipore. Assays were performed with La-phosphatidylinositol (Avanti) as described in Knight et al. Nat. […] Inhibitor series were prepared 10% DMSO as 5× stocks for the assay. […] COS-7 cells were cultured in 10 cm dishes and transfected at 70% confluence with 10 μg of plasmid DNA (HA-tagged bovine PI4KIIIβ, HA-tagged human PI4KIIIα) using Lipofectamine 2000 and 5 ml Opti-MEM following the manufacturer's instructions. After 5 hours the transfection medium was replaced with 10 ml complete DMEM. 36 hrs post transfection, cells were washed once with 5 ml PBS (pH 7.4) and lysed in 1 ml of lysis buffer (1) on ice. Lysates were collected by scraping and after 15 min they were centrifuged at 13,000 rpm for 10 min. To the lysates was added 200 μl of protein G Sepharose 4 fast flow beads that were prewashed with PBS and lysis buffer and 2 μg of anti-HA antibody. The tubes were then incubated overnight at 4 degrees C. in a tube rotator. […] Kinase reactions were run in a mixture of 45 μL of PI buffer (1 mM PI in kinase buffer), 10 μL of immunoprecipitated beads, 2 μL of inhibitors (dissolved and diluted in DMSO) or DMSO and 5 μL of [γ-^32P]-ATP (1 mM and 2 μCi/tube). The immunoprecipitates in PI buffer were pre-incubated with the drugs for 20 min prior the initiation of kinase reaction by adding ATP and the reactions were carried out for 30 min in 15 ml polypropolyne tubes. Reactions were terminated by addition of 3 ml of CHCl3:CH3OH:HCl (200:100:0.75) followed by 0.6 ml of 0.6N HCl to induce phase separation. The mixtures were vortexed, centrifuged at 2000 rpm for 2 min and the upper phase was discarded. To the lower phase was added 1.5 ml of CHCl3:CH3OH:0.6N HCl (3:48:47) and the mixture vortexed and centrifuged at 2000 rpm for 2 min. The lower phase was then transferred to counting vials and evaporated. Samples were counted in a scintillation beta counter after adding 5 ml of Instafluor (Perkin-Elmer).
# [3] = uninfected and HCV-infected Huh7.5 cells, immunofluorescence, FIG. 1
structure (smiles),measurement,setting,value
COc1ccc(-c2sc(NC(=O)C3CCCC3)nc2C)cc1S(=O)(=O)Nc1ccc(O)cc1 [PT423],EC50,Plasmodium falciparum,3.2 nM
same,IC50,PI3K C2b,28 nM
same,effect on ER (calnexin co-staining),[1]; control for non-specific effects on the cells,absence of any detectable effects on the ER
same,effect on PI-4 (PI(4)P) levels,[1]; [3],dose-dependent decrease
same,"effect on PIP2 (PI(4,5)P2) levels",[1]; [3],dose-dependent decrease
same,IC50,[2],7 nM
